From patent publication US10766917B2, “Nucleotides for the treatment of cancer” (IDENIX PHARMACEUTICALS LLC, priority 2015, dated 2020)
Where two headings read alike, the source gives them in different places.

Assays:
Assay type in all cases: cell-based
[1] = test system: A498; test: In vitro inhibition, CellTiter-Glo (CTG) assay; conditions: 72 hr exposure
Experimental: (§1) Cells were grown in RPMI-1640 supplemented with L-Glutamine and 10% FBS of the following cell lines:
(§2) CCRF-CEM; HL-60; KG-1; CFPAC-1; MiaPACA-2; BxPC-3; HepG2; MDA-MB-231; HCT-116; A498; and NCI-H69
(§3) 18, 96 well plates of each cell line were seeded with the optimized number of cells per well in a total volume of 50 μper well. The plates were left overnight. Plate wells were seeded with 100 pt media for media control. The following day, cells were exposed to test compounds as described below. At the same time as drug exposure, a CTG assay was conducted on the 18th plate for the 0 hr count.
(§4) The compounds were added to cells and medium already on the plate to give desired final concentrations. 50 μL media were added to cell control wells, and 50 μL of mix added to vehicle control wells. 10 μM Doxorubicin was added to appropriate wells as control. Cells exposed to test compound were incubated at 37° C. for 72 hr followed by a CTG assay.
(§5) At the end of the 72 hr exposure period, plates were removed for a CellTiter-Glo (CTG) assay from a 37° C., 5% CO2 incubator and placed on the bench at room temperature for 30 mins. 100 μL of CellTiter-Glo reagent was added and mixed for 2 mins, followed by a further 10 min incubation at room temperature. Luminescence was recorded using Synergy 4.0.

[2] = test system: BxPC-3; test: In vitro inhibition, CellTiter-Glo (CTG) assay; conditions: 72 hr exposure
Experimental: as §1, §2, §3, §4, §5

[3] = test system: CCRF-CEM; test: In vitro inhibition, CellTiter-Glo (CTG) assay; conditions: 72 hr exposure
Experimental: as §1, §2, §3, §4, §5

[4] = test system: CFPAC-1; test: In vitro inhibition, CellTiter-Glo (CTG) assay; conditions: 72 hr exposure
Experimental: as §1, §2, §3, §4, §5

[5] = test system: HCT-116; test: In vitro inhibition, CellTiter-Glo (CTG) assay; conditions: 72 hr exposure
Experimental: as §1, §2, §3, §4, §5

[6] = test system: HL-60; test: In vitro inhibition, CellTiter-Glo (CTG) assay
Experimental: as §1, §2, §3, §4, §5

[7] = test system: HepG2; test: In vitro inhibition, CellTiter-Glo (CTG) assay; conditions: 72 hr exposure
Experimental: as §1, §2, §3, §4, §5

[8] = test system: KG-1; test: In vitro inhibition, CellTiter-Glo (CTG) assay
Experimental: as §1, §2, §3, §4, §5

[9] = test system: MDA-MB-231; test: In vitro inhibition, CellTiter-Glo (CTG) assay
Experimental: as §1, §2, §3, §4, §5

[10] = test system: MiaPACA-2; test: In vitro inhibition, CellTiter-Glo (CTG) assay; conditions: 72 hr exposure
Experimental: as §1, §2, §3, §4, §5

[11] = test system: NCI-H69; test: In vitro inhibition, CellTiter-Glo (CTG) assay
Experimental: as §1, §2, §3, §4, §5

[12] = test system: HuH-1 cells; test: In vitro inhibition of HuH-1, MTT assay; conditions: read-out: HuH-1: relative IC50
Experimental: HuH-1 cells were purchased from JCRB and tested with the following method:
Cells are suspended at a specific density in a specific culture medium (see table in 2.Cell lines).
Then, 100 μl of cell suspension are plated per well in 96-well plates.
Compounds or negative controls (DMSO) are added to the cells (100 μl of a compound solution in its specific medium with a final concentration of 0.15% DMSO).
Each compound concentration is tested in duplicate (6 concentrations per compound).
Cells are incubated at 37° C. for 72 h without treating again.
SDS is added to control wells (final concentration of 1%) and kept for 15 min at 37° C. SDS 1% represents the positive control of proliferation inhibition.
Cell supernatant is removed and 100 μl of a MTT (3-[4.5-dimethylthiazol-2-yl]-2.5-diphenyltetrazolium bromide) solution in fresh medium are added per well (MTT final concentration of 0.5 mg/ml) and incubated for 4 h at 37° C.
MTT reaction is stopped and homogenized by adding 100 μl/well of SDS 10%, 0.01M HCl and incubated for 2 h at 37° C.
Absorbance is measured at 570 nm.

[13] = Homo sapiens, MDA-MB-231, 72 hr exposure

Structure (SMILES)	IC50 [3] [µM]	IC50 [7] [µM]	IC50 ([10]; Homo sapiens, MIA PaCa-2, 72 h) [µM]	IC50 ([12]; Homo sapiens, HuH-1, 72 h) [µM]	IC50 [2] [µM]	IC50 [5] [µM]	IC50 ([9]; 72 hr exposure) [µM]	IC50 ([11]; 72 hr exposure) [µM]	IC50 [4] [µM]	IC50 ([8]; 72 hr exposure) [µM]	IC50 [1] [µM]	also measured
Nc1ccn([C@@H]2O[C@H](CO)[C@@H](O)C2(F)F)c(=O)n1 [Gemcitabine, reference compound]				< 0.3								
CCOC(=O)COP(=O)(N[C@@H](CC(C)C)C(=O)OCC)OC[C@H]1O[C@@H](n2ccc(N)nc2=O)C(F)(F)[C@@H]1O (single isomer, unassigned) [108 (diastereomer 2)]	< 1	< 1			< 1	1 to 10	1 to 10	10 to 100	< 1	< 1	10 to 100	IC50 ([6]; 72 hr exposure): < 1 µM; IC50 [10]: < 1 µM
CC(C)OP1(=O)OC[C@H]2O[C@@H](n3ccc(N)nc3=O)C(F)(F)[C@@H]2O1 (single isomer, unassigned) [Compound 102 (diastereomer 1)]			1 to 10	≥ 0.3	10 to 100	10 to 100	10 to 100	10 to 100			10 to 100	IC50 ([4]; Homo sapiens, CFPAC-1, 72 h): 1 to 10 µM; IC50 ([7]; Homo sapiens, HepG2, 72 h): 1 to 10 µM
CC(C)OC(=O)[C@H](C)CCO[P@@]1(=O)OC[C@H]2O[C@@H](n3ccc(N)nc3=O)C(F)(F)[C@@H]2O1 (single isomer, unassigned; diastereoisomer 2) [Compound 120 Diastereoisomer 2]												IC50 ([12]; 72 h): < 0.3 µM
CC(C)OC(=O)[C@H](C)NP1(=O)OC[C@H]2O[C@@H](n3ccc(N)nc3=O)C(F)(F)[C@@H]2O1 (single isomer, unassigned) [103 (diastereomer 1)]			1 to 10		10 to 100							IC50 ([1]; Homo sapiens, A498, 72 h): 10 to 100 µM; IC50 ([3]; Homo sapiens, CCRF-CEM): < 1 µM; IC50 ([4]; Homo sapiens, CFPAC-1, 72 h): < 1 µM; IC50 ([5]; Homo sapiens, HCT-116, 72 h): 1 to 10 µM; IC50 ([6]; Homo sapiens, HL-60, 72 hr exposure): < 1 µM; IC50 ([7]; Homo sapiens, HepG2, 72 h): < 1 µM; IC50 ([8]; Homo sapiens, KG-1, 72 hr exposure): < 1 µM; IC50 [9, 13]: 10 to 100 µM; IC50 ([11]; Homo sapiens, NCI-H69, 72 hr exposure): 10 to 100 µM

Continued, in another order:

IC50 [3] [µM]	IC50 [7] [µM]	IC50 ([10]; Homo sapiens, MIA PaCa-2, 72 h) [µM]	IC50 ([12]; Homo sapiens, HuH-1, 72 h) [µM]	IC50 [2] [µM]	IC50 [5] [µM]	IC50 ([9]; 72 hr exposure) [µM]	IC50 ([11]; 72 hr exposure) [µM]	Structure (SMILES)	IC50 [4] [µM]	IC50 ([8]; 72 hr exposure) [µM]	IC50 [1] [µM]	also measured
10 to 100	10 to 100	10 to 100						Cn1c(COP(=O)(NCc2ccccc2)OC[C@H]2O[C@@H](n3ccc(N)nc3=O)C(F)(F)[C@@H]2O)cnc1[N+](=O)[O-] (single isomer, unassigned) [112 (diastereomer 1)]	10 to 100	10 to 100		IC50 ([1]; Homo sapiens, A498, 72 h): 10 to 100 µM; IC50 ([2]; Homo sapiens, BXPC-3, 72 h): 10 to 100 µM; IC50 ([5]; Homo sapiens, HCT-116, 72 h): 10 to 100 µM; IC50 ([6]; Homo sapiens, HL-60, 72 h, 72 hr exposure): 1 to 10 µM; IC50 [9, 13]: 10 to 100 µM; IC50 ([11]; Homo sapiens, NCI-H69, 72 h, 72 hr exposure): 10 to 100 µM
			< 0.3					CC(C)OC(=O)[C@@H](C)CCO[P@@]1(=O)OC[C@H]2O[C@@H](n3ccc(N)nc3=O)C(F)(F)[C@@H]2O1 (single isomer, unassigned) [Compound 121 Diastereoisomer 2]				
< 1	1 to 10			10 to 100	10 to 100	10 to 100	10 to 100	Cn1c(COP(=O)(NCc2ccccc2)OC[C@H]2O[C@@H](n3ccc(N)nc3=O)C(F)(F)[C@@H]2O)cnc1[N+](=O)[O-] (single isomer, unassigned) [112 (diastereomer 2)]	1 to 10	1 to 10	10 to 100	IC50 ([6]; 72 hr exposure): < 1 µM; IC50 [10]: 10 to 100 µM
			< 0.3					CCOC(=O)[C@@H](C)CCO[P@]1(=O)OC[C@H]2O[C@@H](n3ccc(N)nc3=O)C(F)(F)[C@@H]2O1 (single isomer, unassigned) [Compound 122 Diastereoisomer 2]				
